Test results from patent US5210193A, “Piperazine derivatives” (American Cyanamid Company, priority 1990, dated 1993).
Values after ≈ are worked out from the molar mass of the structure shown. Values joined by “and” are separate entries in the source; they are usually repeats but may differ in a detail not shown here. Equal values may be shown once. Where a name gives a salt, the structure may show the parent alone. Read-outs that look alike come from different tables or passages of the source.

How the values were obtained:
Assay in all cases: in vitro antibacterial MIC, agar plate dilution
Format in all cases: cell-based
[1] = tested on: Klebsiella oxytoca MOR 84-28; conditions: MOR8428, 18 hours, 35° C.
Summary of the method: (§1)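 Read-out is visible growth inhibition on Mueller-Hinton agar dilution plates incubated 18 hours at 35° C after inoculation of ~10^4 CFU (Steers device), with MIC reported in mcg/ml.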

[2] = tested on: Klebsiella pneumoniae MOR 84-4; conditions: Klebsiella pneumoniae, MOR844, 18 h, 35° C., read-out: MIC
Summary of the method: as §1

Klebsiella pneumoniae AD = conditions: Klebsiella pneumoniae, 18 h, 35° C., read-out: MIC
Summary of the method: as §1

[3] = tested on: Enterobacter cloacae K 84-10; conditions: 35° C.
Summary of the method: as §1

[4] = tested on: Serratia marcescens K 84-18; conditions: 35° C.
Summary of the method: as §1

[5] = tested on: Proteus rettgeri CMC 84-41; conditions: 35° C.
Summary of the method: as §1

[6] = tested on: Serratia marcescens F 0-35; conditions: Serratia marcescens, F035, 18 h, 35° C., read-out: MIC
Summary of the method: as §1

[7] = tested on: Staphylococcus Spp saprophiticus VGH 84-50; conditions: 18 hours, 35° C., read-out: MIC
Summary of the method: as §1

[8] = tested on: Staphylococcus epidermidis CMC 83-135; conditions: CMC83135, 18 hours, 35° C., read-out: MIC
Summary of the method: as §1

Escherichia coli NAR 311 = conditions: NAR311, 18 hours, 35° C., read-out: MIC
Summary of the method: as §1

[9] = tested on: Staphylococcus aureus ATTC 29213; conditions: 35° C.
Summary of the method: as §1

[10] = tested on: Staphylococcus aureus VGH 84-46; conditions: Staphylococcus aureus, VGH8446, 18 h, 35° C., read-out: MIC
Summary of the method: as §1

[11] = tested on: Escherichia coli ATCC 25922; conditions: 35° C.
Summary of the method: as §1

[12] = tested on: Staphylococcus epidermidis VGH 84-40; conditions: VGH8440, 18 hours, 35° C., read-out: MIC
Summary of the method: as §1

[13] = tested on: Morganella morganii VGH 84-11; conditions: VGH8411, 18 hours, 35° C., read-out: MIC
Summary of the method: as §1

[14] = tested on: Enterobacter cloacae VGH 84-37; conditions: Enterobacter cloacae, VGH8437, 18 h, 35° C., read-out: MIC
Summary of the method: as §1

[15] = tested on: Streptococcus faecalis ATTC 29212; conditions: Enterococcus faecalis, ATTC29212, 18 hours, 35° C., read-out: MIC
Summary of the method: as §1

[16] = tested on: Enterobacter aerogenes VGH 84-36; conditions: Klebsiella aerogenes, VGH8436, 18 hours, 35° C., read-out: MIC
Summary of the method: as §1

[17] = tested on: Escherichia coli CMC 84-11; conditions: Escherichia coli, CMC8411, 18 h, 35° C., read-out: MIC
Summary of the method: as §1

[18] = tested on: Staphylococcus aureus CMC 83-128; conditions: CMC83128, 18 hours, 35° C., read-out: MIC
Summary of the method: as §1

[19] = tested on: Staphylococcus aureus Smith; conditions: Staphylococcus aureus, 18 h, 35° C., read-out: MIC
Summary of the method: as §1

[20] = tested on: Streptococcus faecalis VGH 84-65; conditions: Enterococcus faecalis, VGH8465, 18 h, 35° C., read-out: MIC
Summary of the method: as §1

[21] = tested on: Escherichia coli CMC 84-16; conditions: Escherichia coli, CMC8416, 18 h, 35° C., read-out: MIC
Summary of the method: as §1

[22] = tested on: Escherichia coli PRNT 311; conditions: PRNT311, 18 hours, 35° C., read-out: MIC
Summary of the method: as §1

[23] = tested on: Staphylococcus aureus VGH 84-45; conditions: Staphylococcus aureus, VGH8445, 18 h, 35° C., read-out: MIC
Summary of the method: as §1

[24] = tested on: Morganella morganii CMC 84-37; conditions: Morganella morganii, CMC8437, 18 h, 35° C., read-out: MIC
Summary of the method: as §1

[25] = tested on: Pseudomonas aeruginosa LL-1244; conditions: Pseudomonas aeruginosa, LL1244, 18 h, 35° C., read-out: MIC
Summary of the method: as §1

[26] = tested on: Staphylococcus epidermidis IO 83-58; conditions: IO8358, 18 hours, 35° C., read-out: MIC
Summary of the method: as §1

[27] = tested on: Staphylococcus aureus CMC 83-127; conditions: Staphylococcus aureus, CMC83127, 18 h, 35° C., read-out: MIC
Summary of the method: as §1

[28] = tested on: Pseudomonas aeruginosa VGH 84-4; conditions: Pseudomonas aeruginosa, VGH844, 18 h, 35° C., read-out: MIC
Summary of the method: as §1

Escherichia coli LL 311 = conditions: Escherichia coli, LL311, 18 h, 35° C., read-out: MIC
Summary of the method: as §1

[29] = tested on: Morganella morganii CMC 84-38; conditions: 18 hours, 35° C., monohydrochloride
Summary of the method: as §1

[30] = tested on: Providencia stuarti CMC 83-3; conditions: 18 hours, 35° C., monohydrochloride
Summary of the method: as §1

[31] = tested on: Serratia marcescens CMC 83-74; conditions: 18 hours, 35° C., monohydrochloride
Summary of the method: as §1

[32] = tested on: Serratia marcescens VGH 84-30; conditions: Serratia marcescens, VGH8430, 18 h, 35° C., read-out: MIC
Summary of the method: as §1

[33] = tested on: Staphylococcus aureus K 82-26; conditions: 18 hours, 35° C., monohydrochloride
Summary of the method: as §1

[34] = tested on: Streptococcus faecalis CMC 83-120; conditions: 18 hours, 35° C., monohydrochloride
Summary of the method: as §1

[35] = tested on: Serratia marcescens MOR 84-41; conditions: 18 hours, 35° C., monohydrochloride
Summary of the method: as §1

[36] = tested on: Pseudomonas aeruginosa VGH 84-3; conditions: 18 hours, 35° C., monohydrochloride
Summary of the method: as §1

[37] = tested on: Streptococcus faecalis UCI 85-30; conditions: 18 hours, 35° C., monohydrochloride
Summary of the method: as §1

[38] = tested on: Pseudomonas aeruginosa K 84-16; conditions: 18 hours, 35° C., monohydrochloride
Summary of the method: as §1

[39] = tested on: Pseudomonas aeruginosa CMC 83-20; conditions: 18 hours, 35° C., monohydrochloride
Summary of the method: as §1

[40] = tested on: Enterobacter cloacae MOR 84-30; conditions: 18 hours, 35° C., monohydrochloride
Summary of the method: as §1

[41] = tested on: Streptococcus faecalis UCI 85-19; conditions: Enterococcus faecalis, UCI8519, 18 h, 35° C., read-out: MIC
Summary of the method: as §1

[42] = Enterobacter cloacae, K8410, 18 h, read-out: MIC
[43] = Serratia marcescens, K8418, 18 h, read-out: MIC
[44] = Providencia rettgeri, CMC8441, 18 h, read-out: MIC
[45] = Staphylococcus aureus, ATTC29213, 18 h, read-out: MIC
[46] = Escherichia coli, ATCC25922, 18 h, read-out: MIC

| SMILES | MIC [1] | MIC [2] | MIC (Klebsiella pneumoniae AD) | MIC [3, 42] | MIC [4, 43] | MIC [5, 44] | MIC [6] | MIC [7] | MIC [8] | MIC (Escherichia coli NAR 311) | MIC [9, 45] | MIC [10] | MIC [11, 46] | MIC [12] | MIC [19] | MIC [20] | MIC [23] | MIC [24] | MIC [25] | MIC [28] | also measured |
| --- | --- | --- | --- | --- | --- | --- | --- | --- | --- | --- | --- | --- | --- | --- | --- | --- | --- | --- | --- | --- | --- |
| CCCCCCOCC1CN(c2cc3c(cc2F)c(=O)c(C(=O)O)cn3CC)CCN1 (stereo not shown) [Example 77, 1-Ethyl-6-fluoro-7-[3-[(hexyloxy)methyl]-1-piperazinyl]-1,4-dihydro-4-oxo-3-quinolinecarboxylic acid] | 8 µg/mL (≈ 18.5 µM) | 4 µg/mL (≈ 9.23 µM) | 4 µg/mL (≈ 9.23 µM) | 4 µg/mL (≈ 9.23 µM) | 16 µg/mL (≈ 36.9 µM) | 8 µg/mL (≈ 18.5 µM) | 8 µg/mL (≈ 18.5 µM) | 2 µg/mL (≈ 4.61 µM) | 1 µg/mL (≈ 2.31 µM) | 32 µg/mL (≈ 73.8 µM) | 1 µg/mL (≈ 2.31 µM) | 0.5 µg/mL (≈ 1.15 µM) | 2 µg/mL (≈ 4.61 µM) | 0.25 µg/mL (≈ 0.577 µM) | 2 µg/mL (≈ 4.61 µM) | 8 µg/mL (≈ 18.5 µM) | 0.5 µg/mL (≈ 1.15 µM) | 4 µg/mL (≈ 9.23 µM) | > 256 µg/mL | 128 µg/mL (≈ 295 µM) | MIC [13]: 4 µg/mL (≈ 9.23 µM); MIC [14]: 4 µg/mL (≈ 9.23 µM); MIC [15]: 8 µg/mL (≈ 18.5 µM); MIC [16]: 4 µg/mL (≈ 9.23 µM); MIC [17]: 2 µg/mL (≈ 4.61 µM); MIC [18]: 0.5 µg/mL (≈ 1.15 µM); MIC [21]: 2 µg/mL (≈ 4.61 µM); MIC [22]: 2 µg/mL (≈ 4.61 µM); MIC [26]: 1 µg/mL (≈ 2.31 µM); MIC [27]: 0.25 µg/mL (≈ 0.577 µM) |
| CCCCCCOCC1CN(c2cc3c(cc2F)c(=O)c(C(=O)O)cn3CC)CCN1C (stereo not shown) [Example 78, 1-Ethyl-6-fluoro-7-[3-[(hexyloxy)methyl]-4-methyl-1-piperazinyl]-1,4-dihydro-4-oxo-3-quinolinecarboxylic acid] | 64 µg/mL (≈ 143 µM) | 64 µg/mL (≈ 143 µM) | 64 µg/mL (≈ 143 µM) | 64 µg/mL (≈ 143 µM) | > 256 µg/mL | 64 µg/mL (≈ 143 µM) | > 256 µg/mL | 8 µg/mL (≈ 17.9 µM) | 4 µg/mL (≈ 8.94 µM) | 256 µg/mL (≈ 572 µM) | 4 µg/mL (≈ 8.94 µM) | 4 µg/mL (≈ 8.94 µM) | 32 µg/mL (≈ 71.5 µM) | 2 µg/mL (≈ 4.47 µM) | 8 µg/mL (≈ 17.9 µM) | 16 µg/mL (≈ 35.8 µM) | 8 µg/mL (≈ 17.9 µM) | 32 µg/mL (≈ 71.5 µM) | > 256 µg/mL | > 256 µg/mL | MIC [13]: 32 µg/mL (≈ 71.5 µM); MIC [14]: 64 µg/mL (≈ 143 µM); MIC [15]: 16 µg/mL (≈ 35.8 µM); MIC [16]: 64 µg/mL (≈ 143 µM); MIC [17]: 32 µg/mL (≈ 71.5 µM); MIC [18]: 4 µg/mL (≈ 8.94 µM); MIC [21]: 32 µg/mL (≈ 71.5 µM); MIC [22]: 16 µg/mL (≈ 35.8 µM); MIC [26]: 8 µg/mL (≈ 17.9 µM); MIC [27]: 1 µg/mL (≈ 2.23 µM) |
| O=C(O)c1cn(C2CC2)c2cc(N3CCNC(c4ccco4)C3)c(F)cc2c1=O (stereo not shown) [Example 99, 1-Cyclopropyl-6-fluoro-1,4-dihydro-4-oxo-7-[3-(2-furanyl) -1-piperazinyl-3-quinolinecarboxylic acid, monohydrochloride] | – | – | – | – | – | – | – | – | – | – | – | – | – | – | < 0.015 µg/mL | 0.5 µg/mL | < 0.015 µg/mL | 0.12 µg/mL | 4 µg/mL | 2 µg/mL | MIC (Escherichia coli LL 311): 0.03 µg/mL; MIC [29]: 0.12 µg/mL; MIC [30]: 8 µg/mL; MIC [31]: 8 µg/mL; MIC ([3]; 18 hours, monohydrochloride): 0.06 µg/mL; MIC ([4]; 18 hours, monohydrochloride): 0.5 µg/mL; MIC ([5]; 18 hours, monohydrochloride): 0.12 µg/mL; MIC [32]: 8 µg/mL; MIC [33]: 0.03 µg/mL; MIC [34]: 0.5 µg/mL; MIC ([9]; 18 hours, monohydrochloride): 0.03 µg/mL; MIC ([11]; 18 hours, monohydrochloride): 0.06 µg/mL and 0.12 µg/mL; MIC [35]: 0.25 µg/mL; MIC [36]: 16 µg/mL; MIC [37]: 0.5 µg/mL; MIC [38]: 4 µg/mL; MIC [39]: 4 µg/mL; MIC [40]: 0.25 µg/mL; MIC [41]: 0.5 µg/mL |
